Experimental data reported in ChEMBL document CHEMBL4196029, “New MD2 inhibitors derived from curcumin with improved anti-inflammatory activity” (Eur J Med Chem, 2018).
Active and inactive are the calls of the source. The rule behind the calls is not given here.

Assays:
[1] = test system: Peritoneal macrophage; assay: Anti-inflammatory activity in C57BL/6 mouse primary peritoneal macrophages assessed as inhibition of LPS-induced IL-6 secretion at 10 uM preincubated for 30 mins followed by LPS addition measured after 24 hrs by ELISA relative to control; format: functional; details: for inhibition at 10 µM: C57BL/6, Peritoneal macrophage
[2] = test system: Peritoneal macrophage; assay: Anti-inflammatory activity in C57BL/6 mouse primary peritoneal macrophages assessed as inhibition of LPS-induced TNFalpha secretion at 10 uM preincubated for 30 mins followed by LPS addition measured after 24 hrs by ELISA relative to control; format: functional; details: for inhibition at 10 µM: C57BL/6, Peritoneal macrophage
[3] = test system: Peritoneal macrophage; assay: Anti-inflammatory activity in C57BL/6 mouse primary peritoneal macrophages assessed as inhibition of LPS-induced IL-6 secretion at 2.5 uM preincubated for 30 mins followed by LPS addition measured after 24 hrs by ELISA relative to control; format: functional; details: C57BL/6, Peritoneal macrophage
[4] = test system: Peritoneal macrophage; assay: Anti-inflammatory activity in C57BL/6 mouse primary peritoneal macrophages assessed as inhibition of LPS-induced TNFalpha secretion at 5 uM preincubated for 30 mins followed by LPS addition measured after 24 hrs by ELISA relative to control; format: functional; details: C57BL/6, Peritoneal macrophage
[5] = test system: Peritoneal macrophage; assay: Anti-inflammatory activity in C57BL/6 mouse primary peritoneal macrophages assessed as inhibition of LPS-induced TNFalpha secretion at 1 to 10 uM preincubated for 30 mins followed by LPS addition measured after 24 hrs by ELISA; format: functional, cell-based
[6] = test system: Peritoneal macrophage; assay: Anti-inflammatory activity in C57BL/6 mouse primary peritoneal macrophages assessed as inhibition of LPS-induced IL-6 secretion at 1 to 10 uM preincubated for 30 mins followed by LPS addition measured after 24 hrs by ELISA; format: functional, cell-based
[7] = Chemical stability in pH 7.4 phosphate buffer at 20 uM measured at 5 mins time intervals for 25 mins by UV absorbance spectroscopic method; format: physicochemical; details: pH 7.4, 25 min

| Stability [7] | Compound | inhibition [1] | inhibition [2] | inhibition at 2.5 µM [3] [%] | inhibition at 5 µM [4] [%] | inhibition [5] | inhibition at 10 µM [1] [%] | inhibition at 10 µM [2] [%] | inhibition [6] |
| --- | --- | --- | --- | --- | --- | --- | --- | --- | --- |
|  | COc1cccc(/C=C2\COC/C(=C\c3cccc(OC)c3OC)C2=O)c1OC | Active | Active |  |  |  |  |  |  |
| Stable | O=C1/C(=C/c2cccc(O)c2)COC/C1=C\c1cccc(O)c1 |  |  | > 50 | > 50 | Active | > 80 | > 80 | Active |
|  | COc1ccc(/C=C2\COC/C(=C\c3ccc(OC)cc3)C2=O)cc1 | inactive | inactive |  |  |  |  |  |  |
| Unstable | COc1cc(/C=C/C(=O)CC(=O)/C=C/c2ccc(O)c(OC)c2)ccc1O [CURCUMIN] | Active | Active |  |  |  |  |  |  |
| Unstable | CN1C/C(=C\c2ccccc2Br)C(=O)/C(=C/c2ccccc2Br)C1 |  |  | > 50 | > 50 | Active | > 80 | > 80 | Active |
|  | COc1ccccc1/C=C1\COC/C(=C\c2ccccc2OC)C1=O | Active | Active |  |  |  |  |  |  |
|  | CCN1C/C(=C\c2ccc(F)cc2)C(=O)/C(=C/c2ccc(F)cc2)C1 |  |  | > 50 | > 50 | Active | > 80 | > 80 | Active |
|  | COc1ccc(/C=C2\COC/C(=C\c3ccc(OC)c(OC)c3)C2=O)cc1OC | inactive | inactive |  |  |  |  |  |  |
|  | O=C1/C(=C/c2ccccc2Br)COC/C1=C\c1ccccc1Br | inactive | inactive |  |  |  |  |  |  |
| Stable | CCN1C/C(=C\c2cccc(OC)c2OC)C(=O)/C(=C/c2cccc(OC)c2OC)C1 |  |  | > 50 | > 50 | Active | > 80 | > 80 | Active |
|  | COc1cc(/C=C2\CSC/C(=C\c3cc(OC)c(OC)c(OC)c3)C2=O)cc(OC)c1OC |  |  |  |  |  | 60 | 25 |  |
